The source of these data is ChEMBL document CHEMBL5214910, “Rational Design of Dipicolylamine-Containing Carbazole Amphiphiles Combined with Zn2+ as Potent Broad-Spectrum Antibacterial Agents with a Membrane-Disruptive Mechanism” (J Med Chem, 2021).

Holding throughout (type): functional
One assay concerns Acinetobacter baumannii. As to the kind of experiment: Antibacterial activity against Acinetobacter baumannii ATCC 17978 assessed as inhibition of bacterial growth by measuring salt resistance incubated for 24 hrs in the presence of 12.5 ug/ml Zn2+ and 24.3 ug/ml Mg2+ by Muller hinton broth based dilution assay.
For the next assay, the system named is Escherichia coli. As to the kind of experiment: Antibacterial activity against Escherichia coli ATCC 25922 assessed as inhibition of bacterial growth by measuring salt resistance incubated for 24 hrs in the presence of 12.5 ug/ml Zn2+ and 3220 ug/ml Na+ by Muller hinton broth based dilution assay.
For another assay, the system named is Staphylococcus aureus. Briefly: Antibacterial activity against Methicillin-resistant Staphylococcus aureus NCTC10442 assessed as inhibition of bacterial growth incubated for 24 hrs in the presence of 6.25 ug/mL Zn2+ by Muller hinton broth based dilution assay.

The term MIC denotes the least concentration at which growth counts as inhibited. `CC(C)=CCn1c2ccccc2c2c(OCC(O)CN(Cc3ccccn3)Cc3ccccn3)cccc21` (stereo not drawn): the MIC in the assay on Acinetobacter baumannii turned out to be 1.56 µg/mL; in the assay on Escherichia coli, 3.12 µg/mL; in the assay on Staphylococcus aureus it was 0.78 µg/mL.
